Measured values from patent publication US7816406B2, “Quinolone analogs” (Cylene Pharmaceuticals, Inc., priority 2004, dated 2010).

Tests used:
Type in all cases: cell-based
MiaPaca = assay: MTS cell proliferation assay, MiaPaca; conditions: Homo sapiens, MIA PaCa-2, M CELL MiaPaca, Table 1C
Protocol: MTS assays. Antiproliferative effects of anticancer drugs are tested by the CellTiter 96 AQueous assay (Promega, WI), which is a colorimetric assay for determining the number of viable cells. (See, e.g., Wang, L., et al., Methods Cell Sci (1996) 18:249-255). Generally, cells (2,000 to 5,000 cells/well) are seeded on 96 well flat bottom plates (Corning, NY) in 100 μl of culture medium without any anticancer drug on day 0, and the culture medium is exchanged for that contained anticancer drugs at various concentrations on day 1. After incubation for 3 days under normal growth conditions (on day 4), the monolayers are washed once in PBS, and the medium is switched to 100 μl of PBS in each of the 96 well plate. After mixing MTS and PMS at the ratio of 20:1, 20 μl of MTS/PMS solution is added to each of the 96 well plate and incubated for 4 hours in a humidified atmosphere of 5% CO2 at 37° C. The absorbance is read at 490 nm using FLUOstar Galaxy 96 well plate reader (BMG Labtechnologies, Germany).

Hela = assay: TumorCell MeanTimeSurvival (Alamar Blue Stain), Hela; conditions: Homo sapiens
PC3 = assay: TumorCell MeanTimeSurvival (Alamar Blue Stain), PC3; conditions: Homo sapiens, PC-3
HCT-116 = assay: TumorCell MeanTimeSurvival (Alamar Blue Stain), HCT-116; conditions: Homo sapiens

Compound	IC50 (MiaPaca)	IC50 (Hela)	IC50 (PC3)	IC50 (HCT-116)
CN1CCCC1CCNC(=O)c1c(=O)c2cc(F)c(SCCc3cnccn3)cc2n2c1sc1ccccc12 (stereo not drawn) [drawing 471]		2800 nM	2700 nM	1100 nM
O=C(NCCN1CCCC1)c1c(=O)c2cc(F)c(SCCc3cnccn3)cc2n2c1sc1ccccc12 [drawing 472]		2700 nM	520 nM	570 nM

Continued, in another order:

IC50 (MiaPaca)	Compound	IC50 (Hela)	IC50 (PC3)	IC50 (HCT-116)
2500 nM	O=C(NCCN1CCCC1)c1c(=O)c2ccc(N3CCN(c4ncccn4)CC3)nc2n2c1sc1ccc(Cl)cc12 [drawing 286]			
110 nM	CC(C)Nc1ncc2c(=O)c(C(=O)NCCN3CCCC3)c3sc4ccccc4n3c2n1 [drawing 330]			
10 nM	CN1CCCC1CCNC(=O)c1c(=O)c2ccc(N3CCNCC3)nc2n2c1sc1ccccc12 (stereo not drawn) [drawing 358]			
